Measured values taken from the NIST ThermoML archive (doi:10.1016/j.fluid.2006.06.013).
Numbers after ± are expanded uncertainties.

Legend:
[1] = refractive index (Na D-line) (dimensionless); conditions: 293.2 K; 101.33 kPa; Liquid; Standard Abbe refractometry
[2] = for vapor or sublimation pressure: Liquid

Row | Compound | refractive index [1] | vapor or sublimation pressure ([2]; 417.59 K) | vapor or sublimation pressure ([2]; 425.4 K) | vapor or sublimation pressure ([2]; 435.12 K) | vapor or sublimation pressure ([2]; 444.5 K) | vapor or sublimation pressure ([2]; 454.9 K) | vapor or sublimation pressure ([2]; 466.01 K) | vapor or sublimation pressure ([2]; 475.82 K) | vapor or sublimation pressure ([2]; 486.11 K) | vapor or sublimation pressure ([2]; 496.11 K) | vapor or sublimation pressure ([2]; 506.87 K) | vapor or sublimation pressure ([2]; 516.84 K) | vapor or sublimation pressure ([2]; 525.54 K) | Normal melting temperature ([2]; Crystal, visual observation)
1 | COC(=O)c1ccccc1C(=O)OC [dimethyl 1,2-benzenedicarboxylate] | 1.516 ± 0.001 | 0.934 ± 0.12 kPa | 1.466 ± 0.13 kPa | 2.21 ± 0.13 kPa | 3.356 ± 0.13 kPa | 5.164 ± 0.13 kPa | 7.823 ± 0.14 kPa | 11.13 ± 0.14 kPa | 15.42 ± 0.15 kPa | 20.93 ± 0.15 kPa | 28.7 ± 0.17 kPa | 38.16 ± 0.18 kPa | 48.71 ± 0.2 kPa | –
2 | O=C1C=CC(=O)O1 [maleic anhydride] | – | – | – | – | – | – | – | – | – | – | – | – | – | 52.5 ± 0.5 °C
